From paper PMC6630443 (Viruses, 2019)

System: persistent USUV
Assay type: cell-based, Usutu virus

Compound	USUV infectivity in supernatant after drug removal	Viral RNA levels in cellular supernatant by day 10
NC(=O)c1ncn([C@@H]2O[C@H](CO)[C@@H](O)[C@H]2O)n1 [Ribavirin, 1-(β-D-Ribofuranosyl)-1H-1,2,4-triazole-3-carboxamide]	re-emerged	barely detectable
NC(=O)c1nc(F)cnc1O [Favipiravir, 6-fluoro-3-hydroxy-2-pyrazinecarboxamide]	re-emerged	barely detectable
